How the values were obtained:
P. aeruginosa PA01 (WT) = type: cell-based, Pseudomonas aeruginosa
[1] = tested on: P. aeruginosa PT1482 (A-), PT1485 (A-B-), PT1149 (A-B-C-algC), PT331 (Z61) (LPS mutants); type: cell-based, Pseudomonas aeruginosa; conditions: MH medium, 12-18 h
PAO1 = type: cell-based, Pseudomonas aeruginosa; conditions: PAO1, MH medium + 30% human serum
Acinetobacter baumannii = type: cell-based; conditions: MH medium, 12-18 h
Method in brief: (§1)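 Broth microdilution in Müller-Hinton medium, two-fold serial dilutions from a starting 32–256 μg/mL, compounds dissolved in PBS; inoculum about 5×10^5 CFU, incubated 37° C ~18 h. MIC taken as lowest concentration with no visible growth by eye; polymyxin as reference.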

[2] = tested on: Staphylococcus aureus (COL, MRSA reference strain); type: cell-based; conditions: MH medium, 12-18 h
Method in brief: as §1

[3] = 5(6)-Carboxyfluorescein leakage from lipid vesicles; conditions: 10 mM TRIS, 107 mM NaCl, pH 7.4; peptide added at 50 s
Experimental: Preparation A thin lipid film was prepared by evaporating a solution of 25 mg Egg PC or Egg PG in 1 mL MeOH/CHCl3 1/1 on a rotary evaporator (rt) and then in vacuo overnight. The resulting film was hydrated with 1 mL buffer (50 mM CF, 10 mM TIRS, 10 mM NaCl, pH 7.4) for 30 min, subjected to freeze-thaw cycles (7×) and extrusion (15×) through a polycarbonate membrane (pore size 100 nm). Extravesicular components were removed by gel filtration (Sephadex G-50) with 10 mM TRIS, 107 mM NaCl, pH 7.4. Final conditions: ˜2.5 mM Egg PC or Egg PG; inside: 50 mM CF, 10 mM TIRS, 10 mM NaCl, pH 7.4; outside: 10 mM TRIS, 107 mM NaCl, pH 7.4.
Experiment Egg PC or Egg PG stock solutions (37.5 μL) were diluted with a buffer (10 mM TRIS, 107 mM NaCl, pH 7.4) and placed in a thermostated fluorescence cuvette (25° C.) and gently stirred (total volume in the cuvette ˜3000 μL; final lipid concentration ˜31.25 μM). CF efflux was monitored at λem 517 nm (λex 492 nm) as a function of time after addition of 20 μL of peptide dendrimer in buffer (10 mM TRIS, 107 mM NaCl, pH 7.4) with final concentrations of 1, 5, 7.5, 10, 15, 20, 25, 30 μg/mL at t=50 s and 1.2% trition X-100 (30 μL, 0.012% final concentration) at t=300 s. Fluorescence intensities were normalized to fractional emission intensity I(t) using I(t)=(It−I0)/(I∞−I0) where I0 It at peptide dendrimer addition, I∞=It at saturation of lysis.

With Polymyxin B [reference compound] the “MIC PAO1” value (P. aeruginosa PA01 (WT); MH medium, 12-18 h, two independent experiments in triplicate (Table 25)) was 1 µg/mL, the “MIC (MH)” value (P. aeruginosa PA01 (WT); PAO1, MH medium (Table 24)) was 2 µg/mL and the “MIC PT1482 (A-)” value [1] was 1 µg/mL. The “MIC PT1485 (AB-)” value [1] was <1 µg/mL, the “MIC (MH + 30% human serum)” value (PAO1) was 4 µg/mL and the “MIC A. baumannii ATCC19606” value (Acinetobacter baumannii) was <1 µg/mL. For the same substance, the “MIC S. aureus COL” value [2] was 64 µg/mL and the “CF leakage from phosphatidylcholine LUVs” value [3] was “behave in the same way”.
